Experimental data taken from patent EP3811945A1, “COMPOUNDS FOR TREATING AND PREVENTING GROWTH HORMONE RECEPTOR-DEPENDENT CONDITIONS” (UMC Utrecht Holding B.V., priority 2019, dated 2021).

What was measured:
[1] = test system: triple negative human breast cancer cells (MDA-MB-231); test: Proliferation test (DNA in vital cells, dose-response); type: cell-based; settings: Homo sapiens; inhibition of proliferation of MDA-MB-231, tested after 24, 48, 72h in cell culture
Protocol: The EC50 refers to the inhibitory effect of the compounds on the proliferation of triple negative human breast cancer cells (MDA-MB-231), tested after 24, 48, 72h in cell culture.
We used the triple-negative human breast cancer line, MDA-MB-231 and quantified DNA in vital cells. Dose-response curves were made after 24, 48 & 72 h. […] The compound with the lowest EC50 (Compound #1) was tested in vivo.

MDA-MB-231 cells = test: In vivo test in mice xenografted with MDA-MB-231 cells; design: species or system Athymic nude BALB/c mice
From the text: • Figure 1. Diagram of the primary screening method for candidate compounds. Depicted are GHR fos-zipped cytosolic tails, amino acid 288-638 with fos zippers (fos), box-1 sequence (B1), and Jak2 (FERM, SH2, pseudokinase and kinase domains), as described in Nespital et al., 2016; Sedek et al, 2014). If the dimerized tails and Jak2 bind via FERM and Box-1, Jak2 gets activated and phosphorylates itself, the dimerized tails and STAT5b. After phosphorylation of specific tyrosine residues on GHR, Jak2 and STAT5, the complex dissociates; as fos-pGHRct is protease-resistant it accumulates in the cells. Unphosphorylated fos-GHRct is rapidly degraded. Steady state levels of Fos-pGHRct are lower if its synthesis, degradation or Jak2-interaction is changed by a candidate compound. The cell-based assay was performed in y2A cells carrying inducible Jak2 (iJak2) or binding-deficient iJak2 Y119E (as control). • Figure 2. Effect of test compounds on mice, xenografted with MDA-MB-231 cells. Athymic nude BALB/c mice were transplanted with luciferase-expressing MDA-MB-231 cells at week -5. Starting at week 0, compound #1 was injected 3 times a week for 3 weeks; group size: 9, intraperitoneally (IP) at 1 or 5 mg/kg as indicated. Anesthetized mice were IP-injected with luciferin and the bioluminescence was imaged. The animals received the last drug injections 2 hours before they were euthanized, then blood was collected and livers were weighed. […] Organoids were cultured in Matrigel in the presence of a variety of growth factors, Wnt activators and MPA. Organoids were treated for 48 h with 100 nM of compound #1 followed by staining with DAPI (nuclei) or specific antibodies against GHR or cytokeratin 8. • Figure 4A: Effect of compounds on GHR levels in Hek293T cells. […] The amounts of GHR both at the plasma membrane (PM) and in the endoplasmic reticulum (ER) were decreased in the cells treated with the compounds. […] Decrease of the pY signal in lanes 3 and 4 in the middle panel reflects the decrease of GHR protein levels (in the upper panel). […] Translation of other proteins was not affected by the drugs (not shown). We used a cell-free translation system based on HeLa cell extract (Promega) Empty vector (pcDNA) was used as control. The blots were detected with an anti-GHR antibody raised in rabbits against the cytosolic tails. • Figure 5: Schematic view of GHR signaling. Top panel, downstream signaling pathways with their main expressed genes and enzymatic activities; middle panel, resulting effect; lower panel, major diseased states if unbalanced.
Mice were xenografted with MDA-MB-231 cells as described. This cell line was chosen as it is GH-responsive, […] can block doxorubicin-induced apoptosis, it lacks E-cadherin due to hypermethylation, proliferates fast, has a basal-like expression profile and originates from infiltrating ductal breast cancer (Christgen and Derksen, 2015; Hollestelle et al., 2013; Minoia et al., 2012).
We used a protocol of 3 injections per week (1 and 5 mg/kg) during 3 weeks (9 mice/group). The treatment started after 5 weeks at a tumor volume of about 60 mm^3, and the animals were killed after 3 weeks at a tumor volume of 130 mm^3 in the control group.

GH-GHR-Jak2 signaling = test: GH-induced signaling in Hek293T cells expressing GHR (pY staining, concentration series)
Protocol: (§1) GH-induced GH-GHR-Jak2 signaling was probed by GHR pY staining in concentration series (0-20 µM, 1 h drug-treated, 10 min GH).

GHR = GHR protein levels and phosphorylation in GHR-expressing HEK293T cells transfected with Jak2 (blot, Figure 4A); type: cell-based, rabbit; settings: overnight treatment, compounds 10 µM; 90 ng GH/ml 10 min before lysis
From the text: • Figure 1. […] Unphosphorylated fos-GHRct is rapidly degraded.

[2] = test system: fos-zippered GHR cytosolic tails; test: In vitro translation in HeLa cell-free system (Figure 4B); type: biochemical; settings: HeLa cell extract, increasing concentrations
From the text: • Figure 1. Diagram of the primary screening method for candidate compounds. Depicted are GHR fos-zipped cytosolic tails, amino acid 288-638 with fos zippers (fos), box-1 sequence (B1), and Jak2 (FERM, SH2, pseudokinase and kinase domains), as described in Nespital et al., 2016; Sedek et al, 2014). If the dimerized tails and Jak2 bind via FERM and Box-1, Jak2 gets activated and phosphorylates itself, the dimerized tails and STAT5b. After phosphorylation of specific tyrosine residues on GHR, Jak2 and STAT5, the complex dissociates; as fos-pGHRct is protease-resistant it accumulates in the cells. Unphosphorylated fos-GHRct is rapidly degraded. Steady state levels of Fos-pGHRct are lower if its synthesis, degradation or Jak2-interaction is changed by a candidate compound. The cell-based assay was performed in y2A cells carrying inducible Jak2 (iJak2) or binding-deficient iJak2 Y119E (as control). • Figure 2. Effect of test compounds on mice, xenografted with MDA-MB-231 cells. Athymic nude BALB/c mice were transplanted with luciferase-expressing MDA-MB-231 cells at week -5. Starting at week 0, compound #1 was injected 3 times a week for 3 weeks; group size: 9, intraperitoneally (IP) at 1 or 5 mg/kg as indicated. […] The blots were detected with an anti-GHR antibody raised in rabbits against the cytosolic tails. • Figure 5: Schematic view of GHR signaling. […]

[3] = test system: dog breast cancer cells, grown as organoids; test: Growth of canine mammary tumor organoids; type: cell-based; settings: Canis lupus familiaris; organoids in Matrigel; read-out: EC50 growth inhibition of dog breast cancer organoids
Protocol: Next, we determined that also growth of dog breast cancer cells, grown as organoids, could be inhibited with the compounds according to the invention, in the best case (compound #1) with an EC50 of about 20 nM, see also figure 3.
Canine mammary organoids were derived from tumor cells and cultured in Matrigel in the presence of a variety of growth factors, Wnt activators and MPA (Timmermans-Sprang et al., 2017). Organoids were treated for 48 h with 100 nM of compound #1, followed by staining with DAPI (nuclei) or specific antibodies against GHR or cytokeratin 8 (CK8).

GM-CSF signaling = test: GH/GM-CSF flow cytometric test in whole human blood with IM-9 lymphoblasts; settings: selectivity versus another Jak2-dependent cytokine
Protocol: This allowed simultaneous testing of GH- and GM-CSF activity. The GH/GM-CSF cytometric test added two important criteria to GH signaling: The test prioritized compounds that target the GH-driven signaling at the expense of another Jak2-dependent cytokine signaling (GM-CSF); equally important: it selected compounds that exert a rapid effect on the GH/IGF-axis as the response time for STAT5 phosphorylation was limited to 20-30 min.
as §1

[4] = IP 1 or 5 mg/kg, 3 times a week for 3 weeks

Cc1nc(N)nc(N)c1C=CC1(c2ccc(C(F)(F)F)cc2)CC1 [Compound #1, 6-methyl-5-[2-{1-[4-(trifluoromethyl)phenyl]cyclopropyl}ethenyl]pyrimidine-2,4-diamine]
EC50 [1]: 30 nM | significantly lowered liver weight (MDA-MB-231 cells; [4]): 85% | total body weights (MDA-MB-231 cells; [4]): remained the same | significantly lowered serum IGF-1 (MDA-MB-231 cells; IP 1 or 5 mg/kg, 3 times a week for 3 weeks, blood 2 hours after last injection): 27% | level of plasma IGF-1 (figure 2C) (MDA-MB-231 cells; treated vs control mice): decreased | liver weight (figure 2D) (MDA-MB-231 cells; treated vs control mice): reduced | phosphorylation of fos-GHRct (fos-pGHRct), of the active site of Jak2 (p1007/1008) and of STAT5 (pSTAT5) (GH-GHR-Jak2 signaling): inhibited | EC50 (GH-GHR-Jak2 signaling; Oryctolagus cuniculus, HEK-293T): ~300 nM | amounts of GHR at the plasma membrane (PM) and in the endoplasmic reticulum (ER) / GHR protein levels (GHR): decreased | effective concentrations on in vitro translation of fos-zippered GHR cytosolic tails [2]: > 0.1 µM | EC50 [3]: ~20 nM | activity towards GM-CSF signaling (GM-CSF signaling): inactive
